Laboratory results from article PMC10046037, “GABRG2 Variants Associated with Febrile Seizures” (Biomolecules, 2023).

Molecular target: T1, α1β3γ2 GABAA receptor, γ2Y468C variant (Homo sapiens, UniProt P14867+P18507+P28472, Y468C)
T1 construct: expressed in transfected cells; host or cells: HEK293T
T1 sequence (P14867 28-456): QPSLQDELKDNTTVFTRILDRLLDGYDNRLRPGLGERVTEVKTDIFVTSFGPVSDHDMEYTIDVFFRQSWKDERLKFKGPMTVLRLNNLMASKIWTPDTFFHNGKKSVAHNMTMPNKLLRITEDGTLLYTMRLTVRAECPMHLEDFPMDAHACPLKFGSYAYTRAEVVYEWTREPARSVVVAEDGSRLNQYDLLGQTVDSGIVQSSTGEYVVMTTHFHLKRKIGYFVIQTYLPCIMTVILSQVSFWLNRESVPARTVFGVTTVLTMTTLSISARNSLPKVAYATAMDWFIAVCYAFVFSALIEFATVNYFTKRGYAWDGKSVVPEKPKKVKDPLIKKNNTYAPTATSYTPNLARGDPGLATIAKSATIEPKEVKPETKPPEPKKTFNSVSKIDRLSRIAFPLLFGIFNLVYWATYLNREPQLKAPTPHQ
T1 sequence (P28472 26-473 isoform P28472-2): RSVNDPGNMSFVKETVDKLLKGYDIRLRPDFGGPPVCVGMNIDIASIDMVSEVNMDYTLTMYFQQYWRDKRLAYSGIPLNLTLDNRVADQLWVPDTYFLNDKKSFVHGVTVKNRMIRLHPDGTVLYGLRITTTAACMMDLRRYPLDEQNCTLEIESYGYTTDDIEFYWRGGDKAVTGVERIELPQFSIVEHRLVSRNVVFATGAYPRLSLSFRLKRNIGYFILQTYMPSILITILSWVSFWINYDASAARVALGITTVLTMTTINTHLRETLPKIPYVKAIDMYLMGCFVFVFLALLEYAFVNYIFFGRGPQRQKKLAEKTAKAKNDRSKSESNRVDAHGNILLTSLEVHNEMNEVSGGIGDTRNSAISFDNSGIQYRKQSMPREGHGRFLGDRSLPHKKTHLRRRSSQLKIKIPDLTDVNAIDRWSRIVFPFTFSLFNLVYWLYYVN
T1 sequence (P18507 40-475 Y468C): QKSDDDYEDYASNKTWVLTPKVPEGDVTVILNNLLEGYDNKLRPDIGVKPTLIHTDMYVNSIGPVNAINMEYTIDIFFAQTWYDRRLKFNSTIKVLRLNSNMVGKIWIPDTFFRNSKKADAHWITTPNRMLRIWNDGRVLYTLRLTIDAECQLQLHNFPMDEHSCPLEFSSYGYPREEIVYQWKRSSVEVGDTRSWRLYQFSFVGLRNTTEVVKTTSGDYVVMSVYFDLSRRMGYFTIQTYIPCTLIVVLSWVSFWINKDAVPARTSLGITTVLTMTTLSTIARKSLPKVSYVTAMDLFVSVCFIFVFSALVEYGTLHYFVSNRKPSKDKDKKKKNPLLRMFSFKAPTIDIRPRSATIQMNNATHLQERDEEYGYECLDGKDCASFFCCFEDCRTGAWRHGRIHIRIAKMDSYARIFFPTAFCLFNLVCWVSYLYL
Assay: Automated patch clamp of GABA-elicited currents (SyncroPatch 384PE), γ2Y468C
Type: cell-based
Details: mean
Protocol: The coding sequences of human α1 (GABRA1, NM_000806), β3 (GABRB3, NM_021912), and γ2 (GABRG2, NM_198904.2) GABAAR subunits were subcloned into the pcDNA3.1 expression vectors (Invitrogen, Waltham, MA, USA).
HEK293T cells (ATCC, CRL-11268) were cultured at 37 °C in a humidified 5% CO2 incubator and maintained in Dulbecco’s modified Eagle’s medium (Invitrogen) supplemented with 10% fetal bovine serum (Life Technologies, Carlsbad, CA, USA), and 100 IU/mL of penicillin/streptomycin (Life Technologies). For the expression experiments, 4 × 10^5 cells were transfected using polyethylenimine (PEI) reagent (40 kD, Polysciences, Warrington, PA, USA) at a DNA: to transfection reagent ratio of 1:2.5 and harvested 36 h after transfection. To express WT and variant α1β3γ2 receptors, a total of 3 µg of α1, β3, and γ2 (WT or mutant) subunit cDNAs were transfected at a ratio of 1:1:1 into 60 mm culture dishes. For the mock-transfected condition, an empty pcDNA3.1 vector was added for a final cDNA transfection amount of 3 μg. For the electrophysiology experiments, 2.5 × 10^5 cells were plated in 100 mm culture dishes and transfected after 24 h with 3 μg of cDNA of each α1, β3, γ2 (wild-type or mutant) subunit, using X-tremeGENE HP DNA transfection Reagent (Roche Diagnostics, Basel, Switzerland), following the manufacturer’s protocol. Recordings were obtained forty-eight hours after transfection.
Whole-cell patch clamp recordings were conducted according to the manufacturer’s standard procedure for the SyncroPatch 384 [31]. Whole-cell voltage-clamp recordings were performed at room temperature on HEK293T cells 48 h after transfection with GABAAR subunits, using the SyncroPatch 384PE (Nanion Technologies, Munich, Germany). Cells, at a concentration of 400,000 cells/mL, were harvested in suspension in external solution containing 140 mM of NaCl, 2 mM of CaCl2, 4 mM of KCl, 1 mM of MgCl2, 5 mM of glucose, and 10 mM of HEPES (pH 7.4 with NaOH, 298 mOsm). The cells were loaded in a multi-hole (4 holes per well) 384-well Nanion patch clamp (NPC) chip with a thick borosilicate glass bottom and an average resistance pore size of […]. Built-in electrophysiological protocols were used, and the data were digitized using PatchControl 384 (Nanion Technologies) application. Using PatchControl 384, electrophysiological parameters, such as seal resistance, capacitance, and series resistance, were determined for each well after the application of a test pulse, and subsequently monitored over time. […] The currents were normalized to the maximal response of each well, and the concentration–response curves were calculated from single-point additions. The EC50 values for each variant or wild-type receptor were calculated across multiple wells for each experimental condition.

NCCCC(=O)O [GABA, γ-aminobutyric acid]
Deactivation (1 mM GABA for 5 ms, HEK293T, -80 mV): 433.9 ms
IMAX (maximal GABA-evoked peak current) (1 mM GABA for 5 ms, HEK293T): 0.80 nA
IMAX variant/IMAX WT (1 mM GABA): 40.06%
Rise Time (10–90% rise time, 1 mM GABA for 5 ms, HEK293T): 26.52 ms
